Data as given in US10501458B2, “Substituted bicyclic fused ring compounds as indoleamine-2,3-dioxygenase inhibitors” (Merck Sharp & Dohme Corp., priority 2015, dated 2019).

Assays:
TDO [1] = biological target: T1, TDO (Homo sapiens (Human), UniProt P48775); test: A172 kynurenine cell-based assay; settings: A172 human glioblastoma cells, 500 μM L-tryptophan, 48 hours; for IC50: read-out: A172 Kynurenine cell based assay, pIC50 (converted)
Method: (§1) Exemplary compounds of the invention were prepared, and tested to determine their effect as TDO and/or IDO inhibitors. Two different assays were employed: 1. a cell-based assay for detecting the effect of test compounds on kynurenine production in two different cancer cell types. This assay utilised cancer cells which expressed either TDO or IDO and as such was used as a means of testing compound activity at these two enzymes in a cell-based context. 2. a TDO and IDO biochemical coupled assay which utilised recombinantly produced and purified TDO and IDO enzymes in combination with the enzyme formamidase. This coupled enzyme system allowed conversion of N-formylkynurenine produced by TDO or IDO activity to kynurenine which was then quantified by fluorescence following addition of Erhlich's Reagent The protocols for these are set out below.
(§2) Cell Based Assay for Detection of Kynurenine Produced by TDO and/or IDO
(§3) A172 (human glioblastoma) and SKOV3 (human ovarian adenocarcinoma) cells were seeded in a 96 well plate at 30,000 or 40,000 cells per well respectively in phenol red-free RPMI supplemented with 10% FCS, 2 mM L-glutamine and 500 μM L-tryptophan. IDO expression was induced in the SKOV3 cells by the addition of 500 ng/ml IFN-γ. Cells were incubated at 37° C. with or without the addition of test compound. After 48 hours, the cells were removed by centrifugation and Erhlich's reagent was added to the supernatant. The Erhlich's reagent was incubated for 5 minutes before the absorbance was read at 490 nm.

IDO [2] = biological target: T2, IDO (Homo sapiens (Human), UniProt P14902); test: SKOV3 kynurenine cell-based assay (IDO induced by IFN-γ); settings: SKOV3 human ovarian adenocarcinoma cells, 500 ng/ml IFN-γ, 500 μM L-tryptophan, 48 hours; for IC50: read-out: SKOV3 Kynurenine cell based assay, pIC50 (converted)
T2 sequence (P14902 whole entry): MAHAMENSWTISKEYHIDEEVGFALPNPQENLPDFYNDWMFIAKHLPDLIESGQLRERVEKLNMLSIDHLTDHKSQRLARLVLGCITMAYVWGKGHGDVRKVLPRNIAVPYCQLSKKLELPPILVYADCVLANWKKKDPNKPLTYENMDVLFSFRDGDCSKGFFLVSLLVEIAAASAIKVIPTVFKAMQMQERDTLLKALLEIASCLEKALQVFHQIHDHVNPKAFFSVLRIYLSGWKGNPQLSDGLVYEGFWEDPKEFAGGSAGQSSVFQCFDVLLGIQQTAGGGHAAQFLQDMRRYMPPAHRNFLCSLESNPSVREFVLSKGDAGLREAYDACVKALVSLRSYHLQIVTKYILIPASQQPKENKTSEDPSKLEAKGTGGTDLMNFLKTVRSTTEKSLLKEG
Method: as §1, §2, §3

IDO [3] = biological target: T2, IDO; test: hIDO biochemical coupled assay; settings: 45 μM L-tryptophan, 17 minutes at room temperature; for IC50: read-out: hIDO biochemical assay, pIC50 (converted)
Method: as §1
(§4) TDO and IDO Biochemical Coupled Assay
(§5) Recombinant human IDO or TDO was incubated in 50 mM KPO4 (pH 7.0), 0.5 mM EGTA, 0.5 mM EDTA, 0.05% Triton™ X100, 20 mM ascorbate, 10 μM methylene blue, 500 U/ml catalase, 50 μg/ml KynB (kynurenine formamidase). TDO assays were carried out in the presence of 330 μM L-tryptophan, while IDO assays had the addition of 45 μM L-tryptophan. After incubation for 17 minutes at room temperature the reactions were stopped by the addition of Erhlich's reagent and incubated at room temperature for 5 minutes before the fluorescence was read (Ex 475, Em530).

TDO [4] = biological target: T1, TDO; test: hTDO biochemical coupled assay; settings: 330 μM L-tryptophan, 17 minutes at room temperature
Method: as §1, §4, §5

T1 sequence (P48775 whole entry): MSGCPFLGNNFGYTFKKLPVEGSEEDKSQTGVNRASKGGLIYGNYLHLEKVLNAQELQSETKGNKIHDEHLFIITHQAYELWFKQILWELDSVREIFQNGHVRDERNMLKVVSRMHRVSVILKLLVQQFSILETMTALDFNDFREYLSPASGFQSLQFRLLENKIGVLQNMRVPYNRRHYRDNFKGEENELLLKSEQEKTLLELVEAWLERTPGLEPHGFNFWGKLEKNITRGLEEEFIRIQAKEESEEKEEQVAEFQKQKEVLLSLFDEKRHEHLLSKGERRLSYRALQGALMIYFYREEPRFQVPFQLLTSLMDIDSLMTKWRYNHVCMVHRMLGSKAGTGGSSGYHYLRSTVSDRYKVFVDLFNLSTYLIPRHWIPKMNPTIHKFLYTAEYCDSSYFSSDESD

A172 Kynurenine cell based assay, pIC50 (TDO [1])	SKOV3 Kynurenine cell based assay, pIC50 (IDO [2])	hIDO biochemical assay, pIC50 (IDO [3])	IC50 (TDO [1]) [µM]	IC50 (IDO [2]) [µM]	IC50 (IDO [3]) [µM]	hTDO biochemical assay, pIC50 (TDO [4])	IC50 (TDO [4]; read-out: hTDO biochemical assay, pIC50 (converted)) [µM]	Structure (SMILES)
++ (++ = pIC50 4.50-5.49)	+ (+ = pIC50 4.00-4.49)	+/− (+/− = pIC50 <4.00)						CS(=O)(=O)N1CCN(c2cc(C(F)(F)F)cn3cncc23)CC1 [Compound 1003]
++ (++ = pIC50 4.50-5.49)	+++ (+++ = pIC50 ≥5.50)							CS(=O)(=O)Nc1ccc(C2CCN(c3cc(C(F)(F)F)cc4cncn34)CC2)cc1 [Compound 1023]
			3.24 to 31.6	32.4 to 100	3.24 to 31.6			CS(=O)(=O)N1CCC(c2cc(C(F)(F)F)cn3cncc23)CC1 [Compound 1005, 8-(1-(methylsulfonyl)piperidin-4-yl)-6-(trifluoromethyl)imidazo[1,5-a]pyridine]
++ (++ = pIC50 4.50-5.49)	+ (+ = pIC50 4.00-4.49)	++ (++ = pIC50 4.50-5.49)						CS(=O)(=O)c1ccc(-c2cc(Cl)cc3cncn23)cc1 [Compound 1012]
++ (++ = pIC50 4.50-5.49)	+++ (+++ = pIC50 ≥5.50)							CNC(=O)c1ccc(C2CCN(c3cc(C(F)(F)F)cc4cncn34)CC2)cc1 [Compound 1025]
++ (++ = pIC50 4.50-5.49)	+/− (+/− = pIC50 <4.00)	+ (+ = pIC50 4.00-4.49)				+ (+ = pIC50 4.00-4.49)		CS(=O)(=O)N1CCC(c2cc(C(F)(F)F)cc3cncn23)CC1 [Compound 1017]
+/− (+/− = pIC50 <4.00)	+ (+ = pIC50 4.00-4.49)	+/− (+/− = pIC50 <4.00)				+/− (+/− = pIC50 <4.00)		OCCc1cc(C(F)(F)F)cn2cncc12 [Compound 1008]
+++ (+++ = pIC50 ≥5.50)	+++ (+++ = pIC50 ≥5.50)							CC(=O)N1CCN(c2cc(Cl)cc3cncn23)CC1(C)C [Compound 1031]
++ (++ = pIC50 4.50-5.49)	++ (++ = pIC50 4.50-5.49)	++ (++ = pIC50 4.50-5.49)				++ (++ = pIC50 4.50-5.49)		CN1C(=O)N(C2CCN(c3cc(C(F)(F)F)cc4cncn34)CC2)C(=O)C1(C)C [Compound 1034]
++ (++ = pIC50 4.50-5.49)	++ (++ = pIC50 4.50-5.49)							CS(=O)(=O)N1CCC(Nc2cc(Cl)cc3cncn23)CC1 [Compound 1030]
+++ (+++ = pIC50 ≥5.50)	++ (++ = pIC50 4.50-5.49)							CC(=O)N1CCN(c2cc(C(F)(F)F)cn3cncc23)CC1(C)C [Compound 1029]
++ (++ = pIC50 4.50-5.49)	+++ (+++ = pIC50 ≥5.50)							CC(=O)Nc1ccc(C2CCN(c3cc(C(F)(F)F)cc4cncn34)CC2)cc1 [Compound 1024]
+/− (+/− = pIC50 <4.00)	++ (++ = pIC50 4.50-5.49)	+/− (+/− = pIC50 <4.00)						CS(=O)(=O)N1CCC(Nc2cc(C(F)(F)F)cn3cncc23)CC1 [Compound 1009]
++ (++ = pIC50 4.50-5.49)	+ (+ = pIC50 4.00-4.49)	++ (++ = pIC50 4.50-5.49)				++ (++ = pIC50 4.50-5.49)		CC(=O)N1CCN(c2cc(C(F)(F)F)cc3cncn23)CC1 [Compound 1018]
+ (+ = pIC50 4.00-4.49)	+/− (+/− = pIC50 <4.00)	+ (+ = pIC50 4.00-4.49)						CC(=O)N1CCC(c2cc(C(F)(F)F)cn3cncc23)CC1 [Compound 1004]
++ (++ = pIC50 4.50-5.49)	+ (+ = pIC50 4.00-4.49)	+/− (+/− = pIC50 <4.00)						CC(=O)N1CCN(c2cc(C(F)(F)F)cn3cncc23)CC1 [Compound 1002]

A172 Kynurenine cell based assay, pIC50 (TDO [1])	SKOV3 Kynurenine cell based assay, pIC50 (IDO [2])	hIDO biochemical assay, pIC50 (IDO [3])	IC50 (TDO [1]) [µM]	IC50 (IDO [2]) [µM]	IC50 (IDO [3]) [µM]	hTDO biochemical assay, pIC50 (TDO [4])	IC50 (TDO [4]; read-out: hTDO biochemical assay, pIC50 (converted)) [µM]	Structure (SMILES)
+ (+ = pIC50 4.00-4.49)	+ (+ = pIC50 4.00-4.49)	++ (++ = pIC50 4.50-5.49)				++ (++ = pIC50 4.50-5.49)		CS(=O)(=O)N1CCN(c2cc(Cl)cc3cncn23)CC1 [Compound 1013]
+++ (+++ = pIC50 ≥5.50)	+++ (+++ = pIC50 ≥5.50)							CC1(C)CN(c2cc(Br)cn3cncc23)CCN1S(C)(=O)=O [Compound 1022]
			3.24 to 31.6	32.4 to 100	3.24 to 31.6		32.4 to 100	CS(=O)(=O)c1ccc(-c2cc(C(F)(F)F)cc3cncn23)cc1 [Compound 1015, 5-(4-(methylsulfonyl)phenyl)-7-(trifluoromethyl)imidazo[1,5-a]pyridine]
			≤ 3.16	≤ 3.16				CC1(C)CN(c2cc(C(F)(F)F)cn3cncc23)CCN1S(C)(=O)=O [Compound 1014, 8-(3,3-dimethyl-4-(methylsulfonyl)piperazin-1-yl)-6-(trifluoromethyl)imidazo[1,5-a]pyridine]
+++ (+++ = pIC50 ≥5.50)	+++ (+++ = pIC50 ≥5.50)							CC1(C)CN(c2cc(C(F)(F)F)cc3cncn23)CCN1S(C)(=O)=O [Compound 1026]
+++ (+++ = pIC50 ≥5.50)	+ (+ = pIC50 4.00-4.49)	+ (+ = pIC50 4.00-4.49)						CS(=O)(=O)c1ccc(-c2cc(C(F)(F)F)cn3cncc23)cc1 [Compound 1007]
+++ (+++ = pIC50 ≥5.50)	++ (++ = pIC50 4.50-5.49)							CC1(C)CN(c2cc(Cl)cn3cncc23)CCN1S(C)(=O)=O [Compound 1016]
+/− (+/− = pIC50 <4.00)	+ (+ = pIC50 4.00-4.49)	+/− (+/− = pIC50 <4.00)				+/− (+/− = pIC50 <4.00)		O=C(Nc1cccn2cncc12)c1ccccc1 [Compound 1001]
++ (++ = pIC50 4.50-5.49)	++ (++ = pIC50 4.50-5.49)	++ (++ = pIC50 4.50-5.49)						CS(=O)(=O)NC1CCN(c2cc(C(F)(F)F)cc3cncn23)CC1 [Compound 1027]
++ (++ = pIC50 4.50-5.49)	+ (+ = pIC50 4.00-4.49)	++ (++ = pIC50 4.50-5.49)						CS(=O)(=O)N1CCN(c2cc(Cl)cn3cncc23)CC1 [Compound 1006]
+++ (+++ = pIC50 ≥5.50)	++ (++ = pIC50 4.50-5.49)							CC(=O)N1CCN(c2cc(Cl)cn3cncc23)CC1(C)C [Compound 1033]
++ (++ = pIC50 4.50-5.49)	+++ (+++ = pIC50 ≥5.50)							CC1(C)CN(c2cc(Cl)cc3cncn23)CCN1S(C)(=O)=O [Compound 1032]
++ (++ = pIC50 4.50-5.49)	+ (+ = pIC50 4.00-4.49)	++ (++ = pIC50 4.50-5.49)				++ (++ = pIC50 4.50-5.49)		CS(=O)(=O)N1CCN(c2cc(C(F)(F)F)cc3cncn23)CC1 [Compound 1019]
+++ (+++ = pIC50 ≥5.50)	++ (++ = pIC50 4.50-5.49)	++ (++ = pIC50 4.50-5.49)						OC1(c2cc(C(F)(F)F)cn3cncc23)CCCCC1 [Compound 1028]
			≤ 3.16	32.4 to 100	3.24 to 31.6			CS(=O)(=O)c1ccc(-c2cc(Cl)cn3cncc23)cc1 [Compound 1010, 6-chloro-8-(4-(methylsulfonyl)phenyl)imidazo[1,5-a]pyridine]
